As a reminder, the MIC is the smallest concentration in the dilution series that meets the test's criterion for growth inhibition. Lower therefore signals inhibition by little substance.

Data on 7 molecules can be found in DBAASP.

Test systems include Bacillus megaterium; Aureobasidium pullulans; Micrococcus luteus; Escherichia coli D31; Escherichia coli BL21AI; Escherichia coli DC2; Listeria innocua; Leuconostoc lactis; Candida albicans SC5314; Candida krusei ATCC 6258; Streptococcus uberis; Bacillus cereus; Staphylococcus aureus; Escherichia coli; Pasteurella multocida; Escherichia coli 780; Staphylococcus aureus 75; Escherichia coli 804.

Holding throughout (assay): ≥ marks a high value that may be exact or a test limit, other limits are often not marked, values filed in µg/mL are converted to µM
For assay [1], the system named is Escherichia coli PCM 2057.
In assay [2] the test system is Staphylococcus aureus PCM 1944.
Assay [3] has as its system Bacillus subtilis ATCC 23857.
Assay [4] deals with Escherichia coli ATCC 25922.
In assay [5] the test system is Staphylococcus aureus ATCC 9144.
The subject of assay [6] is Corynebacterium glutamicum ATCC 13032.
Assay [7] relates to Candida albicans ATCC 10231.
The subject of assay [8] is Pseudomonas aeruginosa ATCC 27853.
Assay [9] concerns Klebsiella pneumoniae K6 ATCC 700603.
The test system of assay [10] is Micrococcus luteus ATCC 10240.
In assay [11] the test system is Salmonella enterica subsp. enterica serovar Typhimurium ATCC 700408.
Assay [12] relates to Escherichia coli DSM 1103.
Assay [13] has as its system Klebsiella pneumoniae DSM 681.
The test system of assay [14] is Staphylococcus epidermidis.
For assay [15], the system named is Batrachochytrium dendrobatidis.
Assay [16] has as its system Candida parapsilosis ATCC 22019.
The test system of assay [17] is Candida albicans ATCC 90028.
In assay [18] the test system is Pseudomonas aeruginosa ATCC 9027.
The subject of assay [19] is Staphylococcus epidermidis ATCC 12228.
Assay [20] concerns Pseudomonas aeruginosa 50.
In assay [21] the test system is Staphylococcus aureus ATCC 29213.
In assay [22] the test system is Pseudomonas aeruginosa 73.
Assay [23] relates to Acinetobacter baumannii 97830.
For assay [24], the system named is Acinetobacter baumannii 9931.
Assay [25] has as its system Klebsiella pneumoniae ATCC 700603.
For assay [26], the system named is Staphylococcus aureus 113.
In assay [27] the test system is Acinetobacter baumannii ATCC 19606.

Converted amounts (≈) assume the structure as drawn. Bounds are passed on as bounds.

Take `C[C@@H]1NC(=O)[C@H](C)NC(=O)[C@H](CCCCN)NC(=O)[C@@H](N)CSSC[C@@H](C(=O)O)NC(=O)[C@H](Cc2ccccc2)NC1=O` [CKAAFC]: the MIC in assay [1] and in [2] was no less than 1560 µM each time.
As to `C[C@H](NC(=O)[C@H](CCCCN)NC(=O)[C@H](Cc1c[nH]c2ccccc12)NC(=O)[C@H](Cc1c[nH]c2ccccc12)NC(=O)[C@H](Cc1c[nH]c2ccccc12)NC(=O)[C@@H]1CCCN1C(=O)[C@H](CCCCN)NC(=O)[C@H](CCCCN)NC(=O)CN)C(=O)N[C@@H](CCCCN)C(N)=O` [GKKPWWWKAK], the MIC in [3] was 2.97 µM (≈ 3.9 µg/mL); with Bacillus megaterium, 0.761 µM (≈ 0.999 µg/mL); in [4], 23.8 µM (≈ 31.3 µg/mL); against Aureobasidium pullulans, 11.9 µM (≈ 15.6 µg/mL); in assay [5], no less than 95.1 µM; in [6], 1.52 µM (≈ 2 µg/mL). The MIC in [7] worked out at 23.8 µM (≈ 31.3 µg/mL); against Micrococcus luteus it was 23.8 µM (≈ 31.3 µg/mL); in assay [8] it was 190 µM (≈ 250 µg/mL).
Regarding `C[C@H](NC(=O)[C@H](CCCCN)NC(=O)[C@H](Cc1c[nH]c2ccccc12)NC(=O)[C@H](Cc1c[nH]c2ccccc12)NC(=O)[C@H](Cc1c[nH]c2ccccc12)NC(=O)[C@H](Cc1c[nH]c2ccccc12)NC(=O)[C@H](CCCCN)NC(=O)[C@H](CCCCN)NC(=O)CN)C(=O)N[C@@H](CCCCN)C(N)=O` [GKKWWWWKAK], the MIC in assay [3] was 5.56 µM (≈ 7.79 µg/mL); against Bacillus megaterium, 2.78 µM (≈ 3.9 µg/mL); in assay [4] it was 44.5 µM (≈ 62.5 µg/mL); in the assay on Aureobasidium pullulans it was 5.56 µM (≈ 7.79 µg/mL); in [5], no less than 89.1 µM; in assay [6], 5.56 µM (≈ 7.79 µg/mL). The minimum inhibitory concentration (MIC) in [7] was found to be 11.1 µM (≈ 15.6 µg/mL); in the assay on Micrococcus luteus, 11.1 µM (≈ 15.6 µg/mL); in [8], 89.1 µM (≈ 125 µg/mL).
In the case of `CC[C@H](C)[C@H](NC(=O)[C@H](CCCN=C(N)N)NC(=O)[C@@H]1CCCN1C(=O)[C@H](Cc1cnc[nH]1)NC(=O)[C@@H]1CCCN1C(=O)[C@@H]1CCCN1C(=O)[C@H](CCCN=C(N)N)NC(=O)[C@@H]1CCCN1C(=O)[C@H](CCCN=C(N)N)NC(=O)[C@@H]1CCCN1C(=O)[C@@H](NC(=O)[C@H](Cc1ccc(O)cc1)NC(=O)[C@@H](NC(=O)[C@@H]1CCCN1C(=O)[C@H](CCCN=C(N)N)NC(=O)[C@H](CC(N)=O)NC(=O)[C@H](CC(N)=O)NC(=O)CN)C(C)C)[C@@H](C)CC)C(N)=O` [GNNRPVYIPRPRPPHPRI], the minimum inhibitory concentration (MIC) stood at 30 µM (≈ 64 µg/mL) against Escherichia coli D31; 3.74 µM (≈ 8 µg/mL) in [9]; 0.459 µM (≈ 0.98 µg/mL) in [10]; 0.936 µM (≈ 2 µg/mL) in assay [11]; 0.229 µM (≈ 0.49 µg/mL) with Escherichia coli BL21AI; 0.459 µM (≈ 0.98 µg/mL) in [12]. Also, the results for the minimal inhibitory concentration (MIC) (in [13]; against Escherichia coli DC2) were 7.31 µM (≈ 15.6 µg/mL) and 3.66 µM (≈ 7.81 µg/mL), respectively.
On to `CC[C@H](C)[C@H](NC(=O)[C@@H](NC(=O)CN)C(C)C)C(=O)N[C@@H](CC(=O)O)C(=O)N[C@@H](C)C(=O)N[C@@H](C)C(=O)N[C@@H](CCCCN)C(=O)N[C@@H](CCCCN)C(=O)N[C@@H](Cc1c[nH]c2ccccc12)C(=O)N[C@@H](CC(N)=O)C(=O)N[C@H](C(=O)N[C@@H](CC(C)C)C(=O)N[C@@H](CCCCN)C(=O)N[C@@H](CC(N)=O)C(=O)N[C@@H](CC(C)C)C(=O)N[C@@H](Cc1ccccc1)C(N)=O)C(C)C` [GVIDAAKKVVNVLKNLF], for which the minimal inhibitory concentration (MIC) was 27.3 µM (≈ 49.6 µg/mL) with Listeria innocua; 6.56 µM (≈ 11.9 µg/mL) in [14]; 1.64 µM (≈ 2.98 µg/mL) with Leuconostoc lactis; no less than 100 µM in [15]; no less than 35 µM against Candida albicans SC5314; no less than 35 µM against Candida krusei ATCC 6258. Further, the minimum inhibitory concentration (MIC) against Streptococcus uberis is 6.56 µM (≈ 11.9 µg/mL); in assay [16], no less than 70 µM; against Bacillus cereus, 13.7 µM (≈ 24.8 µg/mL); against Staphylococcus aureus, 13.7 µM (≈ 24.8 µg/mL); with Micrococcus luteus it was 27.3 µM (≈ 49.6 µg/mL); against Escherichia coli, 54.7 µM (≈ 99.3 µg/mL). The MIC was 27.3 µM (≈ 49.6 µg/mL) against Pasteurella multocida and no less than 70 µM in assay [17].
As to `NC(=O)[C@H](Cc1c[nH]c2ccccc12)NC(=O)[C@H](CCCN=C(N)N)NC(=O)[C@H](CCCN=C(N)N)NC(=O)[C@H](Cc1c[nH]c2ccccc12)NC(=O)[C@H](Cc1c[nH]c2ccccc12)NC(=O)[C@H](Cc1c[nH]c2ccccc12)NC(=O)[C@H](CCCN=C(N)N)NC(=O)[C@H](CCCN=C(N)N)NC(=O)[C@@H](N)Cc1c[nH]c2ccccc12` [WRRWWWRRW], the MIC in assay [3] is 4 µM (≈ 6.29 µg/mL); in the assay on Escherichia coli 780, 16 µM (≈ 25.2 µg/mL); in [18], 8 µM (≈ 12.6 µg/mL); in [19] it was 2 µM (≈ 3.15 µg/mL); in assay [20] it was 16 µM (≈ 25.2 µg/mL); in assay [21], 4 µM (≈ 6.29 µg/mL). In addition, the minimum inhibitory concentration (MIC) was 8 µM (≈ 12.6 µg/mL) in assay [22]; 16 µM (≈ 25.2 µg/mL) in assay [23]; 8 µM (≈ 12.6 µg/mL) in the assay with Staphylococcus aureus 75; 16 µM (≈ 25.2 µg/mL) in [24]; no less than 32 µM with Escherichia coli 804; 16 µM (≈ 25.2 µg/mL) in assay [25]. Besides, the minimal inhibitory concentration (MIC) turned out to be 4 µM (≈ 6.29 µg/mL) in assay [8], 4 µM (≈ 6.29 µg/mL) in assay [26] and 16 µM (≈ 25.2 µg/mL) in assay [27].
Consider `NC(=O)[C@H](Cc1c[nH]c2ccccc12)NC(=O)[C@H](CCCN=C(N)N)NC(=O)[C@H](Cc1c[nH]c2ccccc12)NC(=O)[C@H](Cc1c[nH]c2ccccc12)NC(=O)[C@H](Cc1c[nH]c2ccccc12)NC(=O)[C@H](CCCN=C(N)N)NC(=O)[C@@H](N)Cc1c[nH]c2ccccc12` [WRWWWRW], for which the MIC in assay [3] is 4 µM (≈ 5.04 µg/mL); against Escherichia coli 780, 8 µM (≈ 10.1 µg/mL); in assay [18] it was 32 µM (≈ 40.3 µg/mL); in assay [19] it was 2 µM (≈ 2.52 µg/mL); in [20], 16 µM (≈ 20.2 µg/mL); in [21], 8 µM (≈ 10.1 µg/mL). The minimum inhibitory concentration (MIC) in assay [22] was no less than 32 µM; in [23], 8 µM (≈ 10.1 µg/mL); with Staphylococcus aureus 75, 4 µM (≈ 5.04 µg/mL); in [24] it was 8 µM (≈ 10.1 µg/mL); in the assay on Escherichia coli 804, 8 µM (≈ 10.1 µg/mL); in assay [25], 8 µM (≈ 10.1 µg/mL). In addition, the figures for the minimum inhibitory concentration (MIC) in assay [8], in assay [26] and in assay [27] were 16 µM (≈ 20.2 µg/mL), 4 µM (≈ 5.04 µg/mL) and 32 µM (≈ 40.3 µg/mL), respectively.
